# Legend:
# HRV2 2A Proteinase [1] = target: T1, HRV2 2A Proteinase (Human rhinovirus 2, UniProt P04936); test: In vitro translation of capped pLink-2C RNA in rabbit reticulocyte lysate pretreated with 2A preparation, with inhibitor; type: biochemical; conditions: 2A Präparation treated with 0,5 mM Elastatinal, Figur 8B, Spur 8
# T1 construct: allen 142 Aminosäuren der 2A Proteinase von HRV2 und 2 Stoppcodons; N-terminal leader: first 14 aa of T7 gene 10 protein + last 7 aa of HRV2 VP1 (removed by self-cleavage) (N, cleaved yes); made in house; host or cells: E. coli BL21(DE3)LysS, plasmid pET/2A; 30 % ammonium sulfate precipitate
# Method: In vitro Transkription dieser Plasmide nach Linearisierung mit BamHI mittels T7 RNA Polymerase wurde wie beschrieben (Duechler et al. (1989), loc. cit.) durchgeführt. Für die Synthese von RNA mit Cap-Struktur wird dem Transkriptionsansatz ⁷mGpppG und GTP zugesetzt. Zum Beispiel kann der von Duechler et al. (1989, loc. cit.) beschriebene Reaktionsansatz 1 mM 7MeGppG und 250 µm GTP enthalten. Am Ende der Reaktionszeit wurde die DNA durch Zugabe von DNase I (RNAse-frei, Boehringer Mannheim) verdaut, die Proteine durch Phenolextraktion entfernt, und die RNA nach Zugabe von einem Drittel Volumen 8 M Ammoniumacetat mit Ethanol gefällt. Nach nochmaliger Fällung mit Ethanol wurde die RNA anschließend in Wasser aufgenommen und ein Aliquot durch Agarosegelelektrophorese auf Qualität überprüft. Der Laufpuffer enthielt 1% SDS. Für die in vitro Translation wurde jeweils 1 µg dieser RNAs eingesetzt. Die Reaktion enthielt in 20 µl 90 mM KCl, 0.3 mM MgCl₂, 10 mM Kreatinphosphat, 2 µl ³⁵S-Trans-Label (ICN; 10 µCi/µl, 1000 Ci/mmol) und 11,5 µl Kaninchenreticulocytenlysat, das mit Micrococcal Nuclease (Sigma) behandelt worden war. Das Kaninchenreticulocytenlysat wurde nach der Methode von Jackson, R. und Hunt, T. (Meth. Enzymol. (1983) 96, 50 - 74) durch Behandlung mit Micrococcal Nuclease hergestellt. […]
# HRV2 2A Proteinase [2] = target: T1, HRV2 2A Proteinase; test: In vitro translation of globin RNA in HeLa cell extract pretreated with 2A proteinase, with inhibitor; type: biochemical; conditions: 2A Proteinase preincubated with 0,5 mM Elastatinal, Fig. 16C, Spur 4
# Method: Zur Herstellung eines HeLa-Zellextraktes wurde eine 1 l HeLa-Suspensionkultur (z.B. HeLa S3 (03-157, FLOWLABS) oder HeLa Ohio (03-147, FLOWLABS)), (ca. 4 x 10⁵ Zellen/ml) in halb-logarithmischer Phase abzentrifugiert (20 min, 1200 rpm), mit isotonischem Puffer gewaschen, durch mehrmaliges "Douncen" (40- bis 50-mal) aufgebrochen und die Zelltrümmer durch Zentrifugation (3 min, 3000 rpm) entfernt. Der Überstand wurde erneut zentrifugiert (20 min, 10000 rpm), das Pellet verworfen und der neue Überstand nochmals zentrifugiert (20 min, 13000 rpm). Der erhaltene Überstand wurde dann bei 4°C gegen Dialysepuffer (zweimal je 400 ml) dialysiert und nochmals 20 Minuten bei 13000 rpm zentrifugiert (20 min, 13000 rpm). Der Überstand (S 20-Extrakt) wurde portioniert und in flüssigem Stickstoff gelagert. isotonischer Puffer: 10 mM Hepes, pH 7,9, 140 mM KCl, 1,5 mM MgCl₂, 1 mM EDTA, 0,5 mM PMSF. Dialysepuffer: 0,1 M KCl, 20 % Glycerin, 20 mM Hepes, pH 7,9, 0,2 mM EDTA, 0,5 mM DTT, 0,5 mM PMSF.
# 1 ml Portionen des S 20-Extraktes wurden dann mit Micrococcal Nuclease (Boehringer Mannheim; Nr. 107921) behandelt, um die endogene RNA abzubauen: Zunächst wurde der Extrakt zentrifugiert (15 min, 4°C, 13000 rpm) und das Pellet verworfen. Zum Überstand (1 ml) wurden zugegeben: 1,2 µl 1 M CaCl₂ 1,5 µl 1 M MgOAc 16,0 µl Micrococcal Nuclease (15 U/µl). […]
# 2A = 2A (Human rhinovirus 2, UniProt P04936); conditions: Sommergruber et al. (1992); read-out: IC50 für 2A; cited from earlier work
# host cell shut-off = test: Inhibition of host cell shut-off (statement, test not described); conditions: statement only, no data given
# HRV2 2A = target: T2, HRV2 2A (Human rhinovirus 2, UniProt P04936); test: Competition assay of peptide substrates against reference peptide P8-P8' (HPLC analysis of cleavage); type: biochemical; conditions: for Spaltbarkeit durch HRV2 2A (result in words): competition assay with P8-P8'
# T2 construct: wurden mit einer reifen, rekombinanten HRV2 2A durchgeführt; made in house
# Text: Die Substratspezifitätsstudien, wie auch alle anderen Studien in diesem Beispiel, wurden mit einer reifen, rekombinanten HRV2 2A durchgeführt. Mittels Kompetitionsstudien unter Verwendung eines 16-mer Wildtyp-Peptidsubstrats (P8-P8') als Referenzpeptid wurde der jeweilige (Vmax/Km)rel-Wert für das mutierte Peptidsubstrat ermittelt. Das Peptid P8-P8' ([…]* […] (SEQ ID NO. 23)) entspricht der nativen Spaltstelle von HRV2 2A im Polyprotein ([…] ist der C-terminale Teil von VP1 und […] der N-Terminus von HRV2 2A). Dieses Peptid wird von der rekombinanten HRV2 2A intermolekular korrekt zwischen Ala und Gly prozessiert (Km-Wert: (5,4±0,02) x 10⁻⁴ Mol/l; Sommergruber et al., loc cit). […] Die Kompetitionsreaktion wurde durch Zugabe von 1 µl einer reinen (ca. 95%) HRV2 2A Stammlösung (2mg/ml in Puffer A + 0,05% NaN₃) gestartet. 50 µl Proben wurden jeweils nach 30, 60, 90, 120 und 150 sek bzw. nach 2, 4, 8, 16 und 32 min entnommen, in ein ULTRAFREE-MC Röhrchen (10,000 NMWL; Fa. Millipore) mit jeweils 250 µl 0,5 M HClO₄ transferriert (Reaktionsstop), gemischt und auf Eis gestellt (mindestens 15 min). Anschließend wurde die Lösung 30 min bei 14K, 4°C in einer SIGMA Eppendorfzentrifuge zentrifugiert. Das Filtrat wurde direkt zur HPLC Analyse eingesetzt. Peptidsubstrate und deren Spaltprodukte wurden entweder auf einem Kurzgradienten (5,5 min; 5,4% B/min; Merck Supersphere C18 Säule, 4x50 mm) oder einem Langgradienten (34,5 min; 0,8% B/min; Bakerbond WP C18 Säule, 4,6x250mm) aufgetrennt. Die Messung der UV Absorption wurde bei 210 nm und 280 nm durchgeführt. Die Spaltprodukte wurden mittels Komigration von Referenzpepetiden und/oder durch Proteinsequenzierung (Hunkapiller und Hood (1983) Science 219, 650-659) identifiziert. Der prozentuelle Anteil der Spaltung für jeden Zeitpunkt wurde durch Vergleich der Flächen der C- und N-terminalen Produktpeaks mit dem des verbliebenen ungespaltenen Peptidsubstrats ermittelt. Zusätzlich wurden die Daten graphisch ausgewertet, um etwaige Abweichungen vom klassischen Kurvenverlauf zu erkennen (z.B. sigmoide Kurve, allosterische Effekte etc.). Bei keinem der in Abb. 23 angeführten mutierten Peptidsubstrate konnte solch ein Effekt beobachtet werden. Für jedes Substrat und dessen Spaltprodukte war die Gesamtfläche der Peaks unabhängig vom Maß der Spaltung (< 5%). Für zwei Peptidsubstrate 1 und 2 ergeben sich in einem Kompetitionsassay nach Pallai et al. (Pallai et al. (1989) J. Biol. Chem. 264, 9738-9741) die (Vmax/Km)rel-Werte: (Vmax/Km)1/(Vmax/Km)2 = log(1-F1)/log(1-F2) [formula] wobei F der Anteil des umgesetzten Substrats ist. In allen Kompetitionsstudien waren Substrat- und Produktpeaks entweder auf dem langen oder dem kurzen bzw. auf beiden Gradienten über HPLC-Analyse voneinander trennbar. […]
# T2 sequence (P04936 851-992): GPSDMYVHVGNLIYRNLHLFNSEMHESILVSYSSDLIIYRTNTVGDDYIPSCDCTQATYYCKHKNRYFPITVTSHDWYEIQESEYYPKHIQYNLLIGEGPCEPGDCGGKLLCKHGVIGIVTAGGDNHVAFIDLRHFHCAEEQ
# T1 sequence (P04936 851-992): as above
# Chain of 2A (P04936 851-992): as above
Compound,Effect on 2A-induced change of translation pattern (HRV2 2A Proteinase [1]),Effect on 2A action on translation of Globin RNA (HRV2 2A Proteinase [2]),IC50 (2A) [µM],Inhibition of host cell shut-off (host cell shut-off),Competitive inhibition of HRV2 2A (HRV2 2A),Spaltbarkeit durch HRV2 2A (result in words) (HRV2 2A)
CC(C)C[C@H](NC(=O)N[C@H](C(=O)N[C@@H](CCC(N)=O)C(=O)N[C@@H](C)C=O)[C@@H]1CCNC(=N)N1)C(=O)O [Elastatinal],die Inhibition von 2A verhindert die Änderung der Translationseigenschaften,die 2A-Wirkung auf die Translation wird inhibiert,50,,,
"p220-3: 16-mer Oligopeptid, Position im p220-Molekül 737-752 (SEQ ID NO. 124) (SSKRTAADKDRGEEDA; UniProt Q04637 737-752, looked up, fragment)",,,,"in der Lage, den ""host cell shut-off"" zu inhibieren",wirken als kompetitive Inhibitoren,von HRV2 2A prozessiert werden können
"p220-4: 16-mer Oligopeptid, Position im p220-Molekül 476-491 (SEQ ID NO. 125) (SEKGGEELLPPESTPI; UniProt Q04637 476-491, looked up, fragment)",,,,"in der Lage, den ""host cell shut-off"" zu inhibieren",wirken als kompetitive Inhibitoren,von HRV2 2A prozessiert werden können

# From patent EP0564801A1, “Analysis of host cell shut-off” (BOEHRINGER INGELHEIM INTERNATIONAL GmbH, priority 1992, dated 1993)
